The series is described as follows: Water solubility of cabazitaxel. The format is physicochemical. The text has this: Drug solubilizer (Tween 80) may be added after the fine emulsion has been quenched. Tween 80 is able to effectively solubilize CTXL crystals and allow for the isolation of nanoparticles from unencapsulated CTXL by preventing the formation of CTXL crystals, and/or by effectively solubilizing any CTXL crystals that form when the fine emulsion is quenched. A standard set of nanoemulsion conditions are as follows: […]

Take cabazitaxel [CTXL]: the water solubility entry is on record as “very low water solubility”.

The values are drawn from patent US20160354320A1, “DRUG LOADED POLYMERIC NANOPARTICLES AND METHODS OF MAKING AND USING SAME” (BIND Therapeutics, Inc., priority 2011, published 2016).
